According to patent publication US6416775B1, “Dry spreadable carrier for pesticides” (priority 1996, dated 2002):

Assay: Volatile materials in ventilating oven
Format: physicochemical
Conditions: after 2 hours at 141° F. (=60.5° C.) in a ventilating oven
Procedure: The moisture content of raw material Celite 500 is 3.7 weight percent. So, the weight of raw material Celite 500 is close to the dry weight of Celite 500. According to the product specifications of Supragil MNS/90, Soprophor S/40-P, and Supragil WP, the moisture contents of these components are no higher than 2 weight percent. Also, samples of chlorpyrifos technical were tested for volatile materials in a ventilating oven. The weight loss after 2 hours at 141° F. (=60.5° C.) was only 0.6 weight percent. […] Therefore, the dry spreadable granular product as manufactured above contains approximately 2.0 weight percent chlorpyrifos.

Structure (SMILES): CCOP(=S)(OCC)Oc1nc(Cl)c(Cl)cc1Cl [Chlorpyrifos]
- weight loss: 0.6 weight percent
